Assay results from the CheMixHub ionic liquid set.

Assay: xn = mol fraction of the nth substance listed
Details: for electrical conductivity: 101 kPa; for viscosity: 100 kPa

CCCCCCCCCCCC[N+](C)(C)Cc1ccccc1.[Cl-] + CC(C)[C@H](NC(=O)CN)C(=O)O + O
electrical conductivity [S/m]
Details	293.15 K	298.15 K	303.15 K	308.15 K	313.15 K
x2 = 0.0008945, x1 = 0.0002772	0.0811	0.0911	0.102	0.114	0.127
x2 = 0.0008945, x1 = 0.0002957	0.0841	0.0945	0.106	0.118	0.132
x2 = 0.0008945, x1 = 0.0003197	0.0879	0.099	0.112	0.124	0.138
x2 = 0.0008946, x1 = 0.0001647	0.0603	0.0672	0.0747	0.0825	0.0908
x2 = 0.0008946, x1 = 0.0001903	0.066	0.0736	0.0819	0.0907	0.1
x2 = 0.0008946, x1 = 0.0002151	0.0707	0.0791	0.0882	0.0978	0.108
x2 = 0.0008946, x1 = 0.0002373	0.0746	0.0834	0.0932	0.103	0.115
x2 = 0.0008946, x1 = 0.0002578	0.0779	0.0874	0.0977	0.109	0.121
x2 = 0.0008947, x1 = 7.118e-05	0.0298	0.0334	0.0372	0.041	0.0451
x2 = 0.0008947, x1 = 9.37e-05	0.0378	0.0423	0.0471	0.052	0.0571
x2 = 0.0008947, x1 = 0.0001168	0.0458	0.0513	0.0569	0.0627	0.0689
x2 = 0.0008947, x1 = 0.00014	0.0533	0.0596	0.0662	0.0729	0.0801
x2 = 0.0008948, x1 = 4.976e-05	0.022	0.0246	0.0275	0.0304	0.0335
x2 = 0.001798, x1 = 0.0001623	0.0582	0.0649	0.0722	0.0797	0.0879
x2 = 0.001798, x1 = 0.0001897	0.0643	0.0719	0.08	0.0885	0.098
x2 = 0.001798, x1 = 0.0002152	0.0693	0.0776	0.0866	0.096	0.106
x2 = 0.001798, x1 = 0.0002386	0.0736	0.0825	0.0922	0.102	0.114
x2 = 0.001798, x1 = 0.0002594	0.0773	0.0868	0.097	0.108	0.12
x2 = 0.001798, x1 = 0.0002777	0.0804	0.0903	0.101	0.113	0.126
x2 = 0.001798, x1 = 0.0002962	0.0834	0.0939	0.105	0.118	0.131
x2 = 0.001798, x1 = 0.0003218	0.0878	0.099	0.112	0.124	0.139
x2 = 0.001799, x1 = 4.099e-05	0.0199	0.0223	0.0251	0.0278	0.0307
x2 = 0.001799, x1 = 6.551e-05	0.0284	0.0319	0.0356	0.0393	0.0433
x2 = 0.001799, x1 = 8.875e-05	0.0363	0.0406	0.0453	0.0499	0.0549
x2 = 0.001799, x1 = 0.0001114	0.0437	0.0488	0.0543	0.0598	0.066
x2 = 0.001799, x1 = 0.000136	0.0512	0.0571	0.0635	0.0695	0.0771

CS(C)=O + CC(N)C(=O)[O-].COCCCCn1cc[n+](C)c1
Details	viscosity [mPa·s]
308.15 K, x2 = 0	1.65

CCCC[N+](CCCC)(CCCC)CCCC.[Cl-] + CCC(=O)O
Details	viscosity [mPa·s]
298 K, x1 = 0.5	3300

CCCCCCCCCCCCCC[P+](CCCCCC)(CCCCCC)CCCCCC.[c-]1c[nH]nn1 + CCCCCCCCCCCCCC[P+](CCCCCC)(CCCCCC)CCCCCC.O=S(=O)([N-]S(=O)(=O)C(F)(F)F)C(F)(F)F
Details	viscosity [mPa·s]
288.15 K, x2 = 0.7	693
293.15 K, x2 = 0.5	502
293.15 K, x2 = 0.7	495
303.15 K, x2 = 0.401	288
303.15 K, x2 = 0.5	270
303.15 K, x2 = 0.7	270
308.15 K, x2 = 0.203	217
308.15 K, x2 = 0.5	204
308.15 K, x2 = 0.902	181

CCCCC[N+](CCCCC)(CCCCC)CCCCC.O=[N+]([O-])[O-] + CCCCCCCCCCCCOS(=O)(=O)[O-].[Na+] + O
viscosity [mPa·s]
Details	x2 = 1.81e-06, x1 = 0.0001802	x2 = 3.62e-06, x1 = 0.0001802	x2 = 5.42e-06, x1 = 0.0001802	x2 = 7.23e-06, x1 = 0.0001802	x2 = 9.04e-06, x1 = 0.0001802	x2 = 1.085e-05, x1 = 0.0001802	x2 = 1.266e-05, x1 = 0.0001802	x2 = 1.447e-05, x1 = 0.0001802	x2 = 1.627e-05, x1 = 0.0001802	x2 = 1.808e-05, x1 = 0.0001802
293.15 K	1.017	1.018	1.019	1.02	1.02	1.02	1.021	1.021	1.021	1.021
298.15 K	0.903	0.905	0.906	0.907	0.907	0.908	0.908	0.908	0.909	0.909
303.15 K	0.8	0.801	0.801	0.801	0.801	0.802	0.802	0.803	0.803	0.804
308.15 K	0.713	0.713	0.713	0.713	0.714	0.714	0.715	0.716	0.716	0.716
313.15 K	0.647	0.647	0.648	0.648	0.648	0.649	0.649	0.649	0.65	0.65
318.15 K	0.601	0.601	0.601	0.601	0.602	0.602	0.602	0.602	0.603	0.603

CCCCC[N+](CCCCC)(CCCCC)CCCCC.O=[N+]([O-])[O-] + CCCCCCCCCCCC[N+](C)(C)C.[Br-] + O
viscosity [mPa·s]
Details	x2 = 5.424e-05, x1 = 0.0001802	x2 = 0.0001085, x1 = 0.0001801	x2 = 0.0001627, x1 = 0.0001801	x2 = 0.0002169, x1 = 0.0001801	x2 = 0.0002712, x1 = 0.0001801	x2 = 0.0003254, x1 = 0.0001801	x2 = 0.0003796, x1 = 0.0001801	x2 = 0.0004338, x1 = 0.0001801	x2 = 0.000488, x1 = 0.0001801	x2 = 0.0005422, x1 = 0.0001801
293.15 K	1.045	1.046	1.048	1.049	1.05	1.051	1.052	1.052	1.052	1.052
298.15 K	0.929	0.931	0.932	0.933	0.933	0.934	0.934	0.934	0.935	0.935
303.15 K	0.825	0.825	0.825	0.825	0.826	0.826	0.827	0.827	0.827	0.828
308.15 K	0.735	0.736	0.736	0.736	0.736	0.737	0.737	0.738	0.739	0.739
313.15 K	0.668	0.668	0.669	0.669	0.669	0.67	0.67	0.67	0.671	0.671
318.15 K	0.62	0.621	0.621	0.622	0.622	0.622	0.622	0.622	0.623	0.623

CC(C)C[C@H](NC(=O)CN)C(=O)O + CCCCCCCCCCCC[N+](C)(C)Cc1ccccc1.[Cl-] + O
electrical conductivity [S/m]
Details	293.15 K	298.15 K	303.15 K	308.15 K	313.15 K
x1 = 0.0009002, x2 = 0	0.00295	0.00335	0.0038	0.00435	0.00495
x1 = 0.001793, x2 = 0	0.00449	0.00524	0.00608	0.00702	0.00811

CCCCCCCCCCCCCC[P+](CCCCCC)(CCCCCC)CCCCCC.N#Cc1ccc[n-]1 + CCCCCC[n+]1ccn(C)c1.O=S(=O)([N-]S(=O)(=O)C(F)(F)F)C(F)(F)F
viscosity [mPa·s]
Details	x2 = 0	x2 = 0.2	x2 = 0.4	x2 = 0.504
283.15 K	–	–	940	810
288.15 K	800	790	–	–

CCCCCCCCCCCCCC[P+](CCCCCC)(CCCCCC)CCCCCC.[c-]1c[nH]nn1 + CCCCCC[n+]1ccn(C)c1.O=S(=O)([N-]S(=O)(=O)C(F)(F)F)C(F)(F)F
viscosity [mPa·s]
Details	278.15 K	283.15 K	288.15 K	293.15 K	298.15 K	303.15 K	308.15 K	313.15 K	318.15 K	323.15 K
x2 = 0.135	2499	1630	1087	744	527	382	284	215	166	131
x2 = 0.3	2448	1593	1061	725	511	369	274	206	159	125
x2 = 0.348	2031	1329	890	614	437	317	236	180	139	109
x2 = 0.45	1597	1057	717	498	358	262	197	151	118	94
x2 = 0.58	1211	820	567	402	294	219	168	131	104	84
x2 = 0.698	755	522	369	268	200	152	119	94	76	62
x2 = 0.849	417	295	214	159	122	96	77	62	51	–

CCCC(C)O (stereo not given) + CCCCCC[n+]1ccn(C)c1.O=[N+]([O-])[O-]
Details	viscosity [mPa·s]
323.15 K, x2 = 0	1.39
